# Measured values as given in patent publication US11413322B2, “Immunotherapy for angiogenic disease” (International Institute of Cancer Immunology, Inc., priority 2014, dated 2022).
# “Also recorded” adds a separate entry of the source. Ends that are not written are not given here.
# Experiments:
# [1] = test system: laser-induced choroid coat angiogenesis; assay: Mouse model of laser-induced choroid coat angiogenesis, WT1 peptide vaccine (Example 1); format: in vivo, mouse (C57BL/6J)
# Procedure: Male C57BL/6J mice (provided by CLEA Japan, Inc.) were used. At the beginning of the experiment, the mice were 8 weeks old (body weight: about 20 to 25 g). The mice were free-fed with laboratory chow (manufactured by Oriental Yeast Co., Ltd.) and tap water. Six mice were used for each administration group.
# The resultant was diluted to 0.227 or 2.27 mg/mL with sterilized PBS. The resultant WT1 solution and Montanide ISA51 VG were mixed so that the volume ratio was 1:1.27 to prepare emulsions of 0.1 μg/μL, 1 μg/μL, and 10 μg/μL. Each of the emulsions was intracutaneously administered at 10 μL/body. Administered doses were 1 μg/body, 10 μg/body, and 100 μg/body. Timing of administrations were on 15, 22, 29, and 36 days after photocoagulation.
# Specifically, with respect to the mice of administration groups (groups 1 to 4) administered with the test substance (WT1 peptide), the administration was carried out through the following procedure.
# (1) Grouping was carried out on the basis of area of fluorescence leakage on 14 days after the photocoagulation.
# (3) Abdomen was shaved with hair clippers, and then intracutaneous administration was carried out using a 30 G injection needle.
# (3) Photocoagulation was carried out using Multi Color Laser Photocoagulator (red) (manufactured by NIDEK CO., LTD.) under the following coagulation conditions: spot size of 50 μm, output of 60 mW, and coagulation time of 0.1 second. […]
# (2) Dilatation of pupils was carried out with Mydrin-P, and then general anesthesia was performed by intramuscular administration at 1 mL/kg of a mixture of Ketalar injection (manufactured by DAIICHI SANKYO COMPANY, LIMITED) and Celactal injection (manufactured by Bayer) (7:1). (3) Fluorescite (Manufactured by Alcon, Inc.) was injected at 0.1 mL/kg via the tail vein, and then fluorescence ocular fundus angiography was carried out using Micron III. (4) An area of fluorescence leakage was calculated using an image analysis software. […]
# [2] = test system: choroidal neovascular area; assay: Mouse laser-induced choroidal neovascularization, WT1235m and WT1332 (Example 2); format: in vivo, mouse (CBF-1); details: 200 μg/body intracutaneous, 4 administrations, FIG. 5; for choroidal neovascular area compared to PBS administration group: time course 2 to 6 weeks
# Procedure: Two species of WT1 peptides: WT1235m ([…](SEQ ID NO: 19)) and WT1332 ([…](SEQ ID NO: 32)) were used as test substances, and following setting of administration groups were provided to conduct an experiment in the same method and procedure as Example 1. The WT1235m was a peptide in which methionine in position 2 of WT1235 (SEQ ID NO: 9) was replaced with tyrosine.
# Fluorescence ocular fundus angiography was carried out at 2 weeks, 3 weeks, 4 weeks, 5 weeks, and 6 weeks after the photocoagulation to analyze time-dependent change of choroidal neovascular area. […] In WT1332 administration group, choroidal neovascular area at 6 weeks after the photocoagulation was reduced to about 70% of choroidal neovascular area at 2 weeks after the photocoagulation.
Sequence,"choroidal neovascular area at 6 weeks after the photocoagulation relative to area at 2 weeks after the photocoagulation ([1]; WT135 group, dose not specified (1, 10, 100 μg/body applied), intracutaneous, FIG. 4)","choroidal neovascular area, change with administration (vs PBS administration group) ([1]; any applied dose of 1, 10 and 100 μg/body intracutaneous, time course 2 to 6 weeks, FIG. 3, FIG. 4)",choroidal neovascular area at 6 weeks after the photocoagulation compared with 2 weeks (in words) ([2]; CBF-1 mice),choroidal neovascular area compared to PBS administration group [2],choroidal neovascular area at 6 weeks after the photocoagulation relative to area at 2 weeks after the photocoagulation ([2]; CBF-1 mice)
"APVLDFAPPGASAYGSLG [WT135, WT1 peptide]",about 50%,Decrease in choroidal neovascular area; also recorded: decreasing trend,,,
CYTWNQMNL [WT1235m],,,the same as that at 2 weeks after the photocoagulation,Decrease in choroidal neovascular area,
"KRYFKLSHLQMHSRKH [WT1332, WT1 peptide]",,,,Decrease in choroidal neovascular area,about 70%
